Test [1] addresses Gamma-aminobutyric acid receptor subunit alpha-1 (Rattus norvegicus, UniProt P62813).
The target of test [2] is Beta-2 adrenergic receptor (Homo sapiens, UniProt P07550).
Another test concerns the target Melanocortin receptor 3 (Homo sapiens, UniProt P41968).
Test [3] concerns the target T1, Muscarinic acetylcholine receptor M1 (Homo sapiens, UniProt P11229).
T1 sequence (P11229 whole entry): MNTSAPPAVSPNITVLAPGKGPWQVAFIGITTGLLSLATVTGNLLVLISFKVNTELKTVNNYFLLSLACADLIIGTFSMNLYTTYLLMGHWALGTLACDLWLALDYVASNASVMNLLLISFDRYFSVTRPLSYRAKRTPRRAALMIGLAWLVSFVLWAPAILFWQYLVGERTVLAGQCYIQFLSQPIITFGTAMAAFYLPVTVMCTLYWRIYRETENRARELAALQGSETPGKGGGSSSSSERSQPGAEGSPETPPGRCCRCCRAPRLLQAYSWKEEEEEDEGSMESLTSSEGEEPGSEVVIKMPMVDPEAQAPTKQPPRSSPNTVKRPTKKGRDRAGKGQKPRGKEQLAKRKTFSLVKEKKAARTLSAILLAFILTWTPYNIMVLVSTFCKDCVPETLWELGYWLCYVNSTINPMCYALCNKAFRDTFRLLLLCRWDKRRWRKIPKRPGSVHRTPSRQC
In kind it is functional.

The target in test [4] is Voltage-gated inwardly rectifying potassium channel KCNH2 (Homo sapiens, UniProt Q12809). In kind it is functional. The conditions noted are these: read-out: AC50.
The target of test [5] is Neuronal acetylcholine receptor subunit alpha-4 (Homo sapiens, UniProt P43681).
In a further test the target is Cannabinoid receptor 1 (Homo sapiens, UniProt P21554). In kind it is functional, cell-based.
In test [6] the target is Glutamate receptor ionotropic, NMDA 1 (Rattus norvegicus, UniProt P35439).
The target in test [7] is T2, Neuropeptide Y receptor type 1 (Homo sapiens, UniProt P25929).
T2 sequence (P25929 whole entry): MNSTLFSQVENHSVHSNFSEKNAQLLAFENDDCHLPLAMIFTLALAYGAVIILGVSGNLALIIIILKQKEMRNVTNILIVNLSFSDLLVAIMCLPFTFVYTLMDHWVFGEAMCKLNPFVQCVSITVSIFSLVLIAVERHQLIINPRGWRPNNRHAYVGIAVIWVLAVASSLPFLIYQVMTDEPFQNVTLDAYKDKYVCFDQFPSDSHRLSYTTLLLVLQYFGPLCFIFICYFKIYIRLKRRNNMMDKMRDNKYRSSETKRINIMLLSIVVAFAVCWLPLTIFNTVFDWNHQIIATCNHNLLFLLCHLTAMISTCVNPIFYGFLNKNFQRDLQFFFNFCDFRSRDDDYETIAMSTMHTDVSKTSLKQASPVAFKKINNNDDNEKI

The target in test [8] is T3, Alpha-1A adrenergic receptor (Homo sapiens, UniProt P35348).
T3 sequence (P35348 whole entry): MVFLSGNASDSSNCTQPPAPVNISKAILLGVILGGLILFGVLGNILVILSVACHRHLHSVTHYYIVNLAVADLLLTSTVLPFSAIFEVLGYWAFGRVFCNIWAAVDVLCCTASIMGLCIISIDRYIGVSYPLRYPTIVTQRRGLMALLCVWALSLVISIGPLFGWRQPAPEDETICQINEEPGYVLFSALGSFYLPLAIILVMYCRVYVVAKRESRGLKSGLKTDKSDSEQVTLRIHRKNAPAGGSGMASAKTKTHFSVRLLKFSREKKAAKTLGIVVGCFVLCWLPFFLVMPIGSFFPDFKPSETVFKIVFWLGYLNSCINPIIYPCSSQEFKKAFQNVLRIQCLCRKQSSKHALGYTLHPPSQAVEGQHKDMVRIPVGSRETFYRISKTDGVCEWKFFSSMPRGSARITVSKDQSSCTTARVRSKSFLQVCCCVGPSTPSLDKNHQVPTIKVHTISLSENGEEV
In kind it is functional, cell-based.

The target in test [9] is T4, Alpha-2B adrenergic receptor (Homo sapiens, UniProt P18089).
T4 sequence (P18089 whole entry): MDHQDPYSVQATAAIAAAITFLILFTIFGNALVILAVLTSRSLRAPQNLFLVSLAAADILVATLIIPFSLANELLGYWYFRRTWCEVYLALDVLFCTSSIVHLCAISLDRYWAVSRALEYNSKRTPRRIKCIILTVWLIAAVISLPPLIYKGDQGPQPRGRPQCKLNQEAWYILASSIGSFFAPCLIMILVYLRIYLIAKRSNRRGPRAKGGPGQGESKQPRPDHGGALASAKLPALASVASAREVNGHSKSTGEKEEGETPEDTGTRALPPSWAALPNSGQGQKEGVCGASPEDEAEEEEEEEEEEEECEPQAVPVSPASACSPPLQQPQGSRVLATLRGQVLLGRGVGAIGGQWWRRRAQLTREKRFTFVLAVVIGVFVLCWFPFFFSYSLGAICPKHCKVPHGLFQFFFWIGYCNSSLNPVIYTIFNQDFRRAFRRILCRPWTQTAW

Test [10] has as its target T5, 5-hydroxytryptamine receptor 1A (Homo sapiens, UniProt P08908).
T5 sequence (P08908 whole entry): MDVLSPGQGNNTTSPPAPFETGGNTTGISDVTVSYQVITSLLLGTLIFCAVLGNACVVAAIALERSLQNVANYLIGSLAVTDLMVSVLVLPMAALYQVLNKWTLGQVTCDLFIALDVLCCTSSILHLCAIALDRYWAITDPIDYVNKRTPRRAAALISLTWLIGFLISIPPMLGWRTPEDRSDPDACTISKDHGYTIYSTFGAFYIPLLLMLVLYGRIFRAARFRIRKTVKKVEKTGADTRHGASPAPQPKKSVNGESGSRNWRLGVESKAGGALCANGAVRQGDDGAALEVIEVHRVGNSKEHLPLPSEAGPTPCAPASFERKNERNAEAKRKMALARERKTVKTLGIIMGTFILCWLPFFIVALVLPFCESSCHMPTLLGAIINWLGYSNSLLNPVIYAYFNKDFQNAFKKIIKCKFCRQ
In kind it is functional, cell-based.

A value given as a limit tells only on which side of the number the result lay.

As a reminder, the AC50 is the concentration giving half of the maximal activity seen.
Also: assay procedure not described here.

Melanocortin receptor 3, sequence (P41968 whole entry): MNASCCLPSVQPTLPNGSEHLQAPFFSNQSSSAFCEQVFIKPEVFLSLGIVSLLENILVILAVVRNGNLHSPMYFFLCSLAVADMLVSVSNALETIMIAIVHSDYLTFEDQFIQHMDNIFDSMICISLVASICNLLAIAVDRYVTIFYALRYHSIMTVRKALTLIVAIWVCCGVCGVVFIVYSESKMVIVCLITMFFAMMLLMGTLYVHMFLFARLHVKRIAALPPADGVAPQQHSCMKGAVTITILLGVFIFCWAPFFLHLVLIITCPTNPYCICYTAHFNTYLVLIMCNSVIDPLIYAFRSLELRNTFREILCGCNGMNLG
Voltage-gated inwardly rectifying potassium channel KCNH2, sequence (Q12809 whole entry): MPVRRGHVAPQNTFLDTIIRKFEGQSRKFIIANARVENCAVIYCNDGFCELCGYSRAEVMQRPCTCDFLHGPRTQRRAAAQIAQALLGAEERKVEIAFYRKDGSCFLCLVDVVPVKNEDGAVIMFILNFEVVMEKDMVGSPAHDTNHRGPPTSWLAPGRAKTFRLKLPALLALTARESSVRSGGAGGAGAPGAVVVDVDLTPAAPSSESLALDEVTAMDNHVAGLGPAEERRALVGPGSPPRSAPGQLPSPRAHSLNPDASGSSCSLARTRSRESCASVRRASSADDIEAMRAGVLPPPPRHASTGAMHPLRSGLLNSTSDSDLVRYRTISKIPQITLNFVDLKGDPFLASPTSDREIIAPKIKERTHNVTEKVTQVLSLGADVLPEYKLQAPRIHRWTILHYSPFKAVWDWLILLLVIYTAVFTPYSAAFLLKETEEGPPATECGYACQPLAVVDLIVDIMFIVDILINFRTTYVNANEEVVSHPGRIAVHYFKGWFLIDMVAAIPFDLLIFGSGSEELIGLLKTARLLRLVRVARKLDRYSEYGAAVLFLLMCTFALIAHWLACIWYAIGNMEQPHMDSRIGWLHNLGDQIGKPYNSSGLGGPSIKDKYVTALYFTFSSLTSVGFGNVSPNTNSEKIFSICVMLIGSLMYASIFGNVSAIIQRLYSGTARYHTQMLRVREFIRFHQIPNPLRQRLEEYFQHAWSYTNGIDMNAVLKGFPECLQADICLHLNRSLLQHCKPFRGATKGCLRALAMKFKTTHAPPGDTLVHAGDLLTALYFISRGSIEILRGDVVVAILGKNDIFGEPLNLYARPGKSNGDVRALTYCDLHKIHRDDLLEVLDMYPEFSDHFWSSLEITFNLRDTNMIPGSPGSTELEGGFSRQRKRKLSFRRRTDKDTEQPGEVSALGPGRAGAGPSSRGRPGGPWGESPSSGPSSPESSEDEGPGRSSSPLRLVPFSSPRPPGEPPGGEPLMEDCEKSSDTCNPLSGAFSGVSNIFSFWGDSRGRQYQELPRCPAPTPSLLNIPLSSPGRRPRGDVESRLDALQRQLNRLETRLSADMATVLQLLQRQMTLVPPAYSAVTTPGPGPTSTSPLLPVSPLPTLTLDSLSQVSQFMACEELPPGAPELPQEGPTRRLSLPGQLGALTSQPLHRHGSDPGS
Neuronal acetylcholine receptor subunit alpha-4, sequence (P43681 whole entry): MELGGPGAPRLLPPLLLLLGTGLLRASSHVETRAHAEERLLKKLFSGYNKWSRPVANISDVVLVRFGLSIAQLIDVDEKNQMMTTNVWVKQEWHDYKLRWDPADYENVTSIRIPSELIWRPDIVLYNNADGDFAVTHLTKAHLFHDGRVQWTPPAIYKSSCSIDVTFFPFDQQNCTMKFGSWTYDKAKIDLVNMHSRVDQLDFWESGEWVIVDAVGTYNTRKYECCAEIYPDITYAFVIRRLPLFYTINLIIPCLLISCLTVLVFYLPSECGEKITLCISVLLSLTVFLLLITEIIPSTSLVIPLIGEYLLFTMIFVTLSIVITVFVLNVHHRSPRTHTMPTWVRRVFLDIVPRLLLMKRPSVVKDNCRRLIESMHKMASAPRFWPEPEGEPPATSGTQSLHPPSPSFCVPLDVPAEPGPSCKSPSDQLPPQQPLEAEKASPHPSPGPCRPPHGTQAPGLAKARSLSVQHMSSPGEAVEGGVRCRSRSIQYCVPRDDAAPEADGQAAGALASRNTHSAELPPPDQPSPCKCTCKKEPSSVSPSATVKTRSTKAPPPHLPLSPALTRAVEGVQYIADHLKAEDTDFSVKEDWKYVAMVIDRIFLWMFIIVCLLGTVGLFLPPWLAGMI
Cannabinoid receptor 1, sequence (P21554 whole entry): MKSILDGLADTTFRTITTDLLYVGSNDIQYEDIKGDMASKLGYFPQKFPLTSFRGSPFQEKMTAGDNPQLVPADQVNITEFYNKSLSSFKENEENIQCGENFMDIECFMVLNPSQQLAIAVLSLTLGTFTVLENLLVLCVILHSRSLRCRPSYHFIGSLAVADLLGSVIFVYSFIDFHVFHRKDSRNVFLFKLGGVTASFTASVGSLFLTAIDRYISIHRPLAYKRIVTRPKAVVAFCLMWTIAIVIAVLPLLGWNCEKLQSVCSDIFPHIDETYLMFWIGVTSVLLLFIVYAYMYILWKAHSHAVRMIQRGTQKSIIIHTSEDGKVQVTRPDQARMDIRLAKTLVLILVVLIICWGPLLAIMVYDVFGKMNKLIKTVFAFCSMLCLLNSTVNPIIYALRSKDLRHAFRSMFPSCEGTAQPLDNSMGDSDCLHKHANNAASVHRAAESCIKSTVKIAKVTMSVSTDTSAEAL
Gamma-aminobutyric acid receptor subunit alpha-1, sequence (P62813 whole entry): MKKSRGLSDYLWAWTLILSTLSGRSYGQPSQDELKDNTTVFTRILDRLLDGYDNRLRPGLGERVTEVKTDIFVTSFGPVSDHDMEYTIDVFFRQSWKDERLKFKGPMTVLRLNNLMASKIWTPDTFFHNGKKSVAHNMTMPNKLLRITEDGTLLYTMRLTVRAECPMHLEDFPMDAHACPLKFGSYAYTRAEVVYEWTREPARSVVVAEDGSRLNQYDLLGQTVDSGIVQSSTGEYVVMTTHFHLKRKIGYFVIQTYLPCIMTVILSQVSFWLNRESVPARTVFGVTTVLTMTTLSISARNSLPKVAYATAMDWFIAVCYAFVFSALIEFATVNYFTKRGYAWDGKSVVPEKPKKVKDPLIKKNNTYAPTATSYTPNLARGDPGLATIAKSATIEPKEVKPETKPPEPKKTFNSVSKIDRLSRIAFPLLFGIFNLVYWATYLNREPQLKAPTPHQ
Beta-2 adrenergic receptor, sequence (P07550 whole entry): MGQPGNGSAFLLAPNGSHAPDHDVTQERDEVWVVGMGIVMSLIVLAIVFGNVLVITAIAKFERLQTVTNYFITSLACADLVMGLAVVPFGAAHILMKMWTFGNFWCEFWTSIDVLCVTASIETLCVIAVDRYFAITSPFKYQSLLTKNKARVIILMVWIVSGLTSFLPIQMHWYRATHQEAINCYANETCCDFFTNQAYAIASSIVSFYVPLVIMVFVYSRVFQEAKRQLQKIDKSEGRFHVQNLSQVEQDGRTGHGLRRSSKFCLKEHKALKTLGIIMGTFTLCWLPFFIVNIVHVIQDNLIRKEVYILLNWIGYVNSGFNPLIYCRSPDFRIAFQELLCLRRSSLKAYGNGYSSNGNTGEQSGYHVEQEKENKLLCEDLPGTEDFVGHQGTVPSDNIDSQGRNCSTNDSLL

As to `COc1ccccc1N1CCN(CCCNc2cc(=O)n(C)c(=O)n2C)CC1`, the AC50 is > 30 µM in test [1]; 0.8 µM in test [2]; > 30 µM at Melanocortin receptor 3; > 30 µM in test [3]; > 30 µM in [4]; > 30 µM in test [5]. In addition, the AC50 (on Cannabinoid receptor 1; in test [6]; in test [7]; in [8]) was > 30 µM throughout.

In the case of `O=C(O)CCCCCCCC(=O)O` [AZELAIC ACID], the AC50 was > 10 µM in test [1]; > 10 µM in [2]; > 10 µM at Melanocortin receptor 3; > 10 µM in [3]; > 30 µM in test [4]; > 10 µM in test [9]. Moreover, the AC50 in test [5], in [6], in [7] and in [10] was > 10 µM in each case.

Regarding `CO/N=C(\C(=O)N[C@@H]1C(=O)N2C(C(=O)O)=C(CSc3nnnn3C)CS[C@H]12)c1csc(N)n1` [CEFMENOXIME], the AC50 (on Melanocortin receptor 3; in test [3]; in test [4]; in test [5]; on Cannabinoid receptor 1; in test [7]) was > 30 µM in each case. Also, the AC50 in [10] and in test [8] was > 30 µM throughout.

In the case of `Cc1cc(O)c(C(=O)N[C@@H](C(=O)N[C@@H]2C(=O)N3C(C(=O)O)=C(CSc4nnnn4C)CS[C@H]23)c2ccc(O)cc2)cn1` [CEFPIRAMIDE], the AC50 (in [1]; in test [2]; on Melanocortin receptor 3; in test [3]; in test [4]; in [9]) was > 30 µM each time. Further, the AC50 in test [5], in [6], in test [7] and in [10] was > 30 µM each time.

Consider `CCc1c(Cl)c(O)c(Cl)c(O)c1C(=O)O[C@H]1[C@H](O)[C@H](OC)[C@H](OC/C2=C\C=C\C[C@H](O)/C(C)=C/[C@H](CC)[C@@H](O[C@@H]3OC(C)(C)[C@@H](OC(=O)C(C)C)[C@H](O)[C@@H]3O)/C(C)=C/C(C)=C/C[C@@H]([C@@H](C)O)OC2=O)O[C@@H]1C` [FIDAXOMICIN], for which the AC50 in test [1] was > 10 µM; in [2], > 10 µM; at Melanocortin receptor 3, > 30 µM; in test [3], > 30 µM; in [4], > 30 µM; in [9] it was > 10 µM. Further, the figures for the AC50 in test [5], in test [6] and in [7] were > 10 µM, > 10 µM and > 30 µM, respectively.

For the molecule `C[C@]1(O)CC[C@H]2[C@@H]3CCC4=CC(=O)CC[C@]4(C)[C@@]3(F)[C@@H](O)C[C@@]21C` [FLUOXYMESTERONE], the AC50 was > 10 µM in test [1]; > 10 µM in test [2]; > 10 µM at Melanocortin receptor 3; > 30 µM in test [3]; > 30 µM in test [4]; > 30 µM in test [9]. Moreover, the AC50 in test [5], in test [6], in test [7] and in test [10] was > 10 µM in each case.

With `CC(C)(C)c1cc(C(C)(C)C)c(NC(=O)c2c[nH]c3ccccc3c2=O)cc1O` [IVACAFTOR], the AC50 in test [1] is > 10 µM; in test [2], > 10 µM; on Melanocortin receptor 3 it was > 30 µM; in test [3], > 10 µM; in test [4], > 30 µM; in test [9], > 10 µM. In addition, the values for the AC50 in test [5], in [6] and in [7] were > 10 µM, > 10 µM and > 30 µM, respectively.

On to `N#Cc1ccc([C@H]2CCc3cncn32)c(F)c1` [OSILODROSTAT], for which the AC50 is > 10 µM in test [1]; > 10 µM in [2]; > 10 µM at Melanocortin receptor 3; > 10 µM in [3]; 19.7 µM in [4]; > 10 µM in [9]. The AC50 in test [5], in test [6] and in test [7] was > 10 µM throughout.

Turning to `CC[C@@H]1C(=O)OC[C@@H]1Cc1cncn1C` [PILOCARPINE], the concentration at half-maximal activity (AC50) in test [1] was > 10 µM; in test [2] it was > 10 µM; at Melanocortin receptor 3 it was > 30 µM; in [4], > 30 µM; in [9] it was > 10 µM; in [5] it was > 10 µM. Moreover, the AC50 on Cannabinoid receptor 1 is > 30 µM; in test [6] it was > 10 µM; in test [7], > 30 µM; in test [10], > 30 µM; in [8], > 30 µM.

`O=C(O)C[C@H](O)C[C@H](O)/C=C/c1c(C2CC2)nc2ccccc2c1-c1ccc(F)cc1` [PITAVASTATIN]: the AC50 in [1] was > 10 µM; in test [2] it was > 10 µM; on Melanocortin receptor 3 it was > 30 µM; in [3] it was > 30 µM; in [4], > 30 µM; in [5], > 30 µM. Also, the AC50 in [6] is > 10 µM; in test [7], > 10 µM; in test [10] it was > 10 µM; in test [8] it was > 30 µM.

In the case of `CCN(CC)C(=O)N[C@H]1C[C@@H]2c3cccc4[nH]cc(c34)C[C@H]2N(C)C1` [TERGURIDE], the AC50 in test [1] was > 30 µM; on Melanocortin receptor 3 it was > 30 µM; in [3], > 30 µM; in test [4] it was 18 µM; in [5] it was > 30 µM; on Cannabinoid receptor 1 it was > 30 µM. The AC50 in test [6] is > 30 µM; in test [7], > 30 µM; in [10] it was 0.18 µM; in [8], > 30 µM.

Turning to `CN1CCN(CC/C=C2/c3ccccc3Sc3ccc(S(=O)(=O)N(C)C)cc32)CC1` [THIOTHIXENE], the AC50 was > 10 µM in test [1]; > 10 µM in test [2]; > 30 µM at Melanocortin receptor 3; > 10 µM in test [3]; 1.63 µM in test [4]; > 30 µM on Cannabinoid receptor 1. For the same molecule, the AC50 was > 10 µM in test [6], > 30 µM in test [7] and > 30 µM in test [8].

Values taken from ChEMBL document CHEMBL5291721, “A preclinical secondary pharmacology resource illuminates target-adverse drug reaction associations of marketed drugs” (Nat Commun, 2023).
